The record followed here is patent US11306063B2, “Heterocyclic naphthoquinones derivatives for use in the treatment of cancers including Cushing disease” (Commissariat a l'Energie Atomique et aux Energies …, priority 2016, dated 2022).

Assay [1] concerns Gefitinib-resistant clone H1975. In words: Cell growth inhibition and cell death induction (Incucyte), H1975. It is filed as cell-based, human. As to conditions: 72 hours, FIG. 12A,B. The text has this:
(§1) FIG. 12: The cell growth inhibition and cell death induction of non-small cell lung cancers (NSCLC), HCC827 cells and derivative Gefitinib-resistant clone H1975 (FIG. 12 A,B) and of PC-3 (FIG. 12 C,D) and LnCAP (FIG. 12 E,F) were monitored using Incucyte microscope. Histogram represent in A,C,E: the final cell area relative to the total well area in (%) and in B,D,F: the fluorescent area in μm2. Error bars indicate standard deviation between 6 technical replicates.
(§2) The cell growth inhibition and cell death induction of non-small cell lung cancers (NSCLC), HCC827 cells and derivative Gefitinib-resistant clone H1975 were monitored during a period of 72 hours using Incucyte microscope and dedicated programs allowing to monitor cell confluency (i.e.: cell surface area relative to total well surface) and cell death induction by adding Propidium Iodide (PI) at 1 μg/ml (Sigma Aldrich #P4864) in the culture medium.

Assay [2] relates to MESSA DX5 cells. In words: Cytotoxicity assay (PrestoBlue cell viability), MESSA DX5. The assay is classed as cell-based, human. Particulars: for EC50: Homo sapiens, MES-SA/Dx5, 48 hours treatment, chemoresistant line. The protocol:
(§3) Messa, Messa DX5, HCT116, HEK-293, PC-3, LNCaP, HCC827 and H1975 cell lines are issued from the American Type Culture Collection (ATCC).
(§4) Messa, Messa DX5 and HCT116 were maintained in McCoy's supplemented with 10% fetal bovine serum, and 1% penicillin/streptomycin. PC-3, LNCaP cells were maintained in RPMI medium supplemented with 10% fetal bovine serum, and 1% penicilin/streptomycin and in the case of Messa DX5: 500 nM Doxorubicin was added to maintain selection pressure. HEK293 were maintained in DMEM medium supplemented with 10% fetal bovine serum, and 1% penicillin/streptomycin. Cells were maintained at 37° C. with 5% CO2, 95% air, and humid atmosphere. In the case of hormonal dependent LNCaP cells, 2 μM DiHydroTestosterone (DHT) was added or not—depending on the type of biological assay—for the same incubation period as compounds.
(§5) For cytotoxicity assays, cells were seeded in 96-well microplates 24 hours before the addition of increasing concentrations of each compound in the culture medium. Cell viability was analyzed 48 hours following addition of each compound through the monitoring of mitochondrial […] activity using PrestoBlue® Cell Viability Reagent (Invitrogen; #A-13261). Paclitaxel was used as a control which is cytotoxic on various cancerous cells although not on chemoresistant MESSA DX5 lineage.

The subject of assay [3] is LNCaP prostatic cancer cells. In words: Cell growth inhibition and cell death induction (Incucyte), LNCaP. It is filed as cell-based, human. Particulars: 48 hours, FIG. 12E,F.
Source text: as §1, §2

Assay [4] relates to MESSA cells. In words: Cytotoxicity assay (PrestoBlue cell viability), MESSA. The assay is classed as cell-based. Particulars: Homo sapiens, MES-SA; 48 hours treatment; concentration inducing 50% cell mortality. The protocol: as §3, §4, §5
The target in assay [5] is T1, USP8^CD (purified catalytic domain of USP8) (Homo sapiens, UniProt P40818).
T1 construct: the purified catalytic domain of USP8 (USP8^CD, in-house purified); made in house; host or cells: E. coli BL21 Gold
T1 sequence (P40818 777-1109 limits assumed): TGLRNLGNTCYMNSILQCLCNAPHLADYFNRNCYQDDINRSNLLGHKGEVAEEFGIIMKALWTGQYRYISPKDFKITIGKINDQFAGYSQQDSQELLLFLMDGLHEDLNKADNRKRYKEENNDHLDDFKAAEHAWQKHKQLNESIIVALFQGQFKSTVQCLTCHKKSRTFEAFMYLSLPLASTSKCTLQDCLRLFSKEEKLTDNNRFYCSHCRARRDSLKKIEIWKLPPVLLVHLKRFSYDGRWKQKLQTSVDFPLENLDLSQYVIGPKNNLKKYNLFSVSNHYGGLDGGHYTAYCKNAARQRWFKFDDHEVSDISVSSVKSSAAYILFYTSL
In words: Inhibition of purified USP8^CD enzymatic activity (Ub-AMC or Ub-Rho substrate). The assay is classed as biochemical. As to conditions: for inhibition of USP8^CD catalytic activity (IC50 range, FIG. 1): Ub-Rho substrate (0.1 μM); for inhibition at 0.01 µM: 0.01 μM compound; for inhibition at 0.05 µM: 0.05 μM compound; for inhibition at 0.1 µM: 0.1 μM compound; for inhibition at 0.5 µM: 0.5 μM compound; for inhibition at 1 µM: 1 μM compound; for inhibition at 5 µM: 5 μM compound; for inhibition at 10 µM: 10 μM compound; for inhibition at 25 µM: 25 μM compound; for inhibition at 50 µM: 50 μM compound. A digest of the protocol: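 His-tagged catalytic domain expressed in E. coli and purified by Ni affinity and gel filtration. Assayed in 50 mM HEPES pH 7.6 or 40 mM Tris pH 7.4 buffer with 1 mM DTT; compound added just before Ub-AMC or Ub-Rho substrate, fluorescence kinetics followed 20 or 30 min. Median of duplicates.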

The mark [6] stands for this setting: Ub-AMC substrate at 1 μM, Table 2b, read-out: IC50 USP8 CD.
Setting [7] is: Ub-Rhodamine substrate at 0.1 μM, Table 2c, read-out: IC50 USP8 CD.

By EC50 is commonly meant the midpoint of the concentration-response curve. The term IC50 denotes the point on the concentration scale where inhibition reaches its midpoint. The term inhibition denotes the relative decrease from the control value, in per cent.

Where two headings read alike, the source gives them in different places.

As to `CCCCS(=O)(=O)Cc1nc2c(nc1CS(=O)(=O)CCCC)C(=O)c1ccccc1C2=O` [PCR6236], the “cell growth inhibition and cell death induction, H1975” value in assay [1] is “inhibit cell growth and induce cell death in a dose dependent manner”. Also, in assay [2], the “sensitivity of chemo-resistant MESSA-DX5 compared with nonresistant MESSA cell line” value is reported as “equally sensitive” and the EC50 came to 3500 nM. The “cell growth inhibition and cell death induction, LNCaP” value in assay [3] is “inhibit cell growth and induce cell death in a dose dependent manner”. A half-maximal response in assay [4] (EC50) required 2000 nM. In assay [5], it took 60 nM to reach half-maximal inhibition (IC50) and the “inhibition of USP8^CD catalytic activity (IC50 range, FIG. 1)” value was “in the nanomolar range”.

Turning to `O=C1c2ccccc2C(=O)c2nc(CS(=O)(=O)c3ccccc3F)c(CS(=O)(=O)c3ccccc3F)nc21` [OVM24], the midpoint of the response in assay [2], the EC50, lay at 800 nM. Besides, in assay [3], the “cell growth inhibition and cell death induction, LNCaP” value is “inhibit cell growth and induce cell death in a dose dependent manner”. Further, the midpoint of the response in assay [4], the EC50, lay at 700 nM. Besides, in assay [5] (Table 1d), the inhibition at 0.01 µM is -25%, the inhibition at 0.05 µM is 3%, the inhibition at 0.1 µM is 7% and the inhibition at 0.5 µM turned out to be 65%. In assay [5] (Table 1d), the inhibition at 1 µM turned out to be 74%, the inhibition at 5 µM was found to be 78% and the inhibition at 10 µM was found to be 97%. In assay [5] (Table 1b), the inhibition at 1 µM is 64%, the inhibition at 5 µM is 103%, the inhibition at 25 µM was determined as 115% and the inhibition at 50 µM is 103%. Moreover, in assay [5] (setting [6]), the IC50 was 400 nM. The IC50 in assay [5] (setting [7]) amounted to 2300 nM.

Take `CCCS(=O)(=O)Cc1nc2c(nc1CS(=O)(=O)CCC)C(=O)c1ccccc1C2=O` [VIN6074]: in assay [2], the EC50 is 3500 nM. For the same compound, the “cell growth inhibition and cell death induction, LNCaP” value in assay [3] was “inhibit cell growth and induce cell death in a dose dependent manner”. Also, the midpoint of the response in assay [4], the EC50, lay at 2700 nM. Besides, in assay [5] (Table 1d), the inhibition at 0.01 µM was -17%, the inhibition at 0.05 µM was 16%, the inhibition at 0.1 µM is 0% and the inhibition at 0.5 µM is 67%. Besides, in assay [5] (Table 1d), the inhibition at 1 µM is 93%, the inhibition at 5 µM is 103% and the inhibition at 10 µM came to 99%. In assay [5] (Table 1b), the inhibition at 1 µM stood at 93%, the inhibition at 5 µM came out at 98%, the inhibition at 25 µM came to 100% and the inhibition at 50 µM stood at 107%. The IC50 in assay [5] (setting [6]) amounted to 300 nM. Further, the IC50 in assay [5] (setting [7]) turned out to be 40 nM.

On to `CCCCS(=O)(=O)Cc1nc2c(o1)C(=O)c1ccccc1C2=O` [PCR9301], for which the “cell growth inhibition and cell death induction, H1975” value in assay [1] was “inhibit cell growth and induce cell death in a dose dependent manner”. In addition, in assay [2], the “sensitivity of chemo-resistant MESSA-DX5 compared with nonresistant MESSA cell line” value was “equally sensitive” and a half-maximal response (EC50) required 1800 nM. The same compound had an EC50 in assay [4] of 1300 nM. In assay [5] (Table 3a), the inhibition at 0.1 µM came out at 53%, the inhibition at 0.5 µM turned out to be 81% and the inhibition at 1 µM is 107%. In assay [5], the “inhibition of USP8^CD catalytic activity (IC50 range, FIG. 1)” value is given as “in the nanomolar range”. For the same compound, the concentration for half-maximal inhibition (IC50) in assay [5] (Ub-Rho substrate, Table 3b, read-out: IC50 against purified USP8^CD) is 80 nM.
